Drawing on US10508085B2, “Compounds and methods for IDO and TDO modulation, and indications therefor” (Plexxikon Inc., priority 2016, dated 2019), this text covers IC50 for 24 molecules.

Some results are limits rather than exact numbers.

Assay [1] addresses T1, Human Indoleamine 2,3-dioxygenase (IDO) (Homo sapiens, UniProt P14902).
T1 construct: His tag (N); made in house; host or cells: E. coli
Nature of the assay: Human IDO enzymatic assay (kynurenine level). The note with it: 6 nM IDO, 10 μM L-Trp; geometric mean; read-out: IDO1 GMean: IC50 (μM) (Biochemical Assay). Type of assay: biochemical. The method, boiled down:
(§1)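 N-terminally His-tagged enzymes expressed in E. coli were run in 50 mM sodium phosphate pH 6.5 with 10 mM ascorbate, catalase and Tween 20. IDO: 6 nM enzyme, 10 μM L-Trp, 5 μM methylene blue, 20 min RT. TDO: 1 nM enzyme, 350 μM L-Trp, 0.4 μM methylene blue, 70 min RT.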

For assay [2], the target named is T2, Human Tryptophan 2,3-dioxygenase (TDO) (Homo sapiens, UniProt P48775).
T2 construct: His tag (N); made in house; host or cells: E. coli
T2 sequence (P48775 whole entry): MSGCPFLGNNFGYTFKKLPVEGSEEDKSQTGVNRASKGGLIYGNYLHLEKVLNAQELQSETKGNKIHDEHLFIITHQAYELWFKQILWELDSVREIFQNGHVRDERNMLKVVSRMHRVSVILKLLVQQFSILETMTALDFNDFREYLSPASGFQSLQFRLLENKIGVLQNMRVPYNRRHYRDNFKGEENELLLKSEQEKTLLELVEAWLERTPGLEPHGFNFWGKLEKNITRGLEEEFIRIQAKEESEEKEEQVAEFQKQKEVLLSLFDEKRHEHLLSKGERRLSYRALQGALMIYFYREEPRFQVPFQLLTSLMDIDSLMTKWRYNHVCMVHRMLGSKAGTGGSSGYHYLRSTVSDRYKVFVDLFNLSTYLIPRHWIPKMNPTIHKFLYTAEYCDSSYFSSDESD
As to the kind of experiment: Human TDO enzymatic assay (kynurenine level). Type of assay: biochemical. The note with it: 1 nM TDO, 350 μM L-Trp; geometric mean; read-out: TDO GMean: IC50 (μM) (Biochemical Assay). In short, it runs like this: as §1

In assay [3] the target is T3, human IDO (IDO1-expressing HEK293 cells) (Homo sapiens, UniProt P14902).
T3 construct: expressed in transfected cells
T3 sequence (P14902 whole entry): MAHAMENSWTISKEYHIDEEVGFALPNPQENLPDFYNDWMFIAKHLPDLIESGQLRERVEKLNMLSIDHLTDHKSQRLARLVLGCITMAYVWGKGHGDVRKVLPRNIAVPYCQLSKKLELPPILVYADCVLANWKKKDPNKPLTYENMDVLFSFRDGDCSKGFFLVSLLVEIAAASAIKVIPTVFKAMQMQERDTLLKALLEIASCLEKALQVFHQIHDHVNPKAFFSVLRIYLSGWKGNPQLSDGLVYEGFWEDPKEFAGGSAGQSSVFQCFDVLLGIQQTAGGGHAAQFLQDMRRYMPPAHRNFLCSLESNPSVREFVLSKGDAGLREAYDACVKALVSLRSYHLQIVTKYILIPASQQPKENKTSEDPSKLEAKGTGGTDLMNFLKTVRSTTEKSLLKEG
Nature of the assay: Cell based kynurenine assay, IDO1-expressing HEK293 cell clones. The note with it: IDO1-expressing HEK293 cells, 24 hours incubation; geometric mean; read-out: HEK293 IDO1 Kynurenine GMean IC50 (μM) (Cellular Assay). The method, boiled down:
(§2)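 Stably transfected HEK293 clones expressing human IDO1 or TDO (CMV promoter) were seeded at 2.5×10^4 cells/well and treated with serially diluted compounds for 24 h. Supernatant kynurenine was then measured, and % inhibition versus DMSO-treated cell and media-only controls was fitted by nonlinear regression to give IC50.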

Assay [4] concerns the target T4, human TDO (TDO-expressing HEK293 cells) (Homo sapiens, UniProt P48775).
T4 construct: expressed in transfected cells
Nature of the assay: Cell based kynurenine assay, TDO-expressing HEK293 cell clones. The note with it: TDO-expressing HEK293 cells, 24 hours incubation; geometric mean; read-out: HEK293 TDO Kynurenine GMean IC50 (μM) (Cellular Assay). In short, it runs like this:
as §2

T1 sequence (P14902 whole entry): as above
T4 sequence (P48775 whole entry): as the sequence (P48775 whole entry) above

On to `CC(C)(C1CCOCC1)C(O)c1cc(Cl)cc2[nH]ncc12` (stereo not drawn) [Compound P-0174, 1-(6-chloro-1H-indazol-4-yl)-2-methyl-2-(tetrahydro-2H-pyran-4-yl)propan-1-ol], for which the half-inhibitory concentration (IC50) in assay [1], in assay [2], in assay [3] and in assay [4] was 0.0001 to 10 µM in each case.
Take `CC(C)(C1CCN(C(=O)NCC(F)(F)F)CC1)C(O)c1cc(Cl)cc2cn[nH]c12` (stereo not drawn) [Compound P-0175, 4-(1-(5-chloro-1H-indazol-7-yl)-1-hydroxy-2-methylpropan-2-yl)-N-(2,2,2-trifluoroethyl)piperidine-1-carboxamide]: the IC50 in assay [1], in assay [2], in assay [3] and in assay [4] was 0.0001 to 10 µM in each case.
With `CC(C)(C1CCN(C(=O)NC2CC2)CC1)C(O)c1cc(Cl)cc2cn[nH]c12` (stereo not drawn) [Compound P-0176, 4-(1-(5-chloro-1H-indazol-7-yl)-1-hydroxy-2-methylpropan-2-yl)-N-cyclopropylpiperidine-1-carboxamide], the half-inhibitory concentration (IC50) in assay [1], in assay [2], in assay [3] and in assay [4] was 0.0001 to 10 µM in each case.
`CC(C)(C1CCN(C(=O)OCC(F)(F)F)CC1)C(O)c1cc(Cl)cc2cn[nH]c12` (stereo not drawn) [Compound P-0177, 2,2,2-trifluoroethyl 4-(1-(5-chloro-1H-indazol-7-yl)-1-hydroxy-2-methylpropan-2-yl)piperidine-1-carboxylate]: the IC50 in assay [1], in assay [2], in assay [3] and in assay [4] was 0.0001 to 10 µM throughout.
`CC(C)(C1CCN(C(=O)Nc2ccccc2F)CC1)C(O)c1cc(Cl)cc2cn[nH]c12` (stereo not drawn) [Compound P-0178, 4-(1-(5-chloro-1H-indazol-7-yl)-1-hydroxy-2-methylpropan-2-yl)-N-(2-fluorophenyl)piperidine-1-carboxamide]: the IC50 in assay [1], in assay [2], in assay [3] and in assay [4] was 0.0001 to 10 µM each time.
For the molecule `COc1ccccc1NC(=O)N1CCC(C(C)(C)C(O)c2cc(Cl)cc3cn[nH]c23)CC1` (stereo not drawn) [Compound P-0179, 4-(1-(5-chloro-1H-indazol-7-yl)-1-hydroxy-2-methylpropan-2-yl)-N-(2-methoxyphenyl)piperidine-1-carboxamide], the IC50 in assay [1], in assay [2], in assay [3] and in assay [4] was 0.0001 to 10 µM each time.
As for `CC(C)(C1CCN(C(=O)Nc2ccccc2C#N)CC1)C(O)c1cc(Cl)cc2cn[nH]c12` (stereo not drawn) [Compound P-0180, 4-(1-(5-chloro-1H-indazol-7-yl)-1-hydroxy-2-methylpropan-2-yl)-N-(2-cyanophenyl)piperidine-1-carboxamide], the IC50 in assay [1], in assay [2], in assay [3] and in assay [4] was 0.0001 to 10 µM throughout.
With `Cc1cccc(NC(=O)N2CCC(C(C)(C)C(O)c3cc(Cl)cc4cn[nH]c34)CC2)c1` (stereo not drawn) [Compound P-0181, 4-(1-(5-chloro-1H-indazol-7-yl)-1-hydroxy-2-methylpropan-2-yl)-N-(m-tolyl)piperidine-1-carboxamide], the IC50 in assay [1], in assay [2], in assay [3] and in assay [4] was 0.0001 to 10 µM each time.
`COc1cccc(NC(=O)N2CCC(C(C)(C)C(O)c3cc(Cl)cc4cn[nH]c34)CC2)c1` (stereo not drawn) [Compound P-0182, 4-(1-(5-chloro-1H-indazol-7-yl)-1-hydroxy-2-methylpropan-2-yl)-N-(3-methoxyphenyl)piperidine-1-carboxamide]: the IC50 in assay [1], in assay [2], in assay [3] and in assay [4] was 0.0001 to 10 µM each time.
For the molecule `COc1ccc(NC(=O)N2CCC(C(C)(C)C(O)c3cc(Cl)cc4cn[nH]c34)CC2)cc1` (stereo not drawn) [Compound P-0183, 4-(1-(5-chloro-1H-indazol-7-yl)-1-hydroxy-2-methylpropan-2-yl)-N-(4-methoxyphenyl)piperidine-1-carboxamide], the IC50 in assay [1], in assay [2], in assay [3] and in assay [4] was 0.0001 to 10 µM in each case.
Consider `CC(C)(C1CCN(C(=O)Nc2ccccc2Cl)CC1)C(O)c1cc(Cl)cc2cn[nH]c12` (stereo not drawn) [Compound P-0184, 4-(1-(5-chloro-1H-indazol-7-yl)-1-hydroxy-2-methylpropan-2-yl)-N-(2-chlorophenyl)piperidine-1-carboxamide], for which the IC50 in assay [1], in assay [2], in assay [3] and in assay [4] was 0.0001 to 10 µM each time.
Take `O=C(NC1CC1)N1CCC(C(F)(F)C(O)c2cc(Cl)cc3cn[nH]c23)CC1` (stereo not drawn) [Compound P-0185, 4-(2-(5-chloro-1H-indazol-7-yl)-1,1-difluoro-2-hydroxyethyl)-N-cyclopropylpiperidine-1-carboxamide]: the IC50 in assay [1], in assay [2], in assay [3] and in assay [4] was 0.0001 to 10 µM in each case.
In the case of `OC(c1cc(Cl)cc2cn[nH]c12)C1(C2CCC2)CCC1` (stereo not drawn) [Compound P-0186, [1,1′-bi(cyclobutan)]-1-yl(5-chloro-1H-indazol-7-yl)methanol], the IC50 in assay [1], in assay [2], in assay [3] and in assay [4] was 0.0001 to 10 µM each time.
For `OC(c1cc(Cl)cc2cn[nH]c12)C1(C2CCCCC2)CC1` (stereo not drawn) [Compound P-0187, (5-chloro-1H-indazol-7-yl)(1-cyclohexylcyclopropyl)methanol], the IC50 in assay [1], in assay [2], in assay [3] and in assay [4] was 0.0001 to 10 µM throughout.
As for `OC(c1cc(Cl)cc2cn[nH]c12)C1(Cc2cccc(F)c2)CCC1` (stereo not drawn) [Compound P-0188, (5-chloro-1H-indazol-7-yl)(1-(3-fluorobenzyl)cyclobutyl)methanol], the IC50 (commonly the point on the concentration scale where inhibition reaches its midpoint) in assay [1] is 0.0001 to 10 µM; in assay [2], 0.0001 to 10 µM; in assay [3], 0.0001 to 10 µM; in assay [4] it was over 10 µM.
Turning to `O=S1(=O)CC(O)(c2cc(Cl)cc3cn[nH]c23)C1` [Compound P-0189, 3-(5-chloro-1H-indazol-7-yl)-3-hydroxythietane 1,1-dioxide], the IC50 in assay [1] is over 200 µM; in assay [2], over 200 µM; in assay [3] it was over 10 µM; in assay [4], 0.0001 to 10 µM.
In the case of `CC1(C)[C@H]2CCC3(CC(O)(c4cc(Cl)cc5cn[nH]c45)C3)[C@@H]1C2` (stereo partly drawn) [Compound P-0190], the IC50 in assay [1], in assay [2], in assay [3] and in assay [4] was 0.0001 to 10 µM throughout.
In the case of `CC(C)(C1CCOCC1)C(O)c1cc(Cl)cc2cn[nH]c12` (stereo not drawn) [Compound P-0191, 1-(5-chloro-1H-indazol-7-yl)-2-methyl-2-(tetrahydro-2H-pyran-4-yl)propan-1-ol], the IC50 in assay [1], in assay [2], in assay [3] and in assay [4] was 0.0001 to 10 µM in each case.
As to `OC(c1cc(Cl)cc2cn[nH]c12)C(F)(F)C1CCOCC1` (stereo not drawn) [Compound P-0192, 1-(5-chloro-1H-indazol-7-yl)-2,2-difluoro-2-(tetrahydro-2H-pyran-4-yl)ethan-1-ol], the IC50 in assay [1], in assay [2], in assay [3] and in assay [4] was 0.0001 to 10 µM each time.
As to `CC1(C)C2CCC(C2)[C@]12C[C@@](O)(c1cc(Cl)cc3cn[nH]c31)C2` (stereo partly drawn) [Compound P-0193, (2s,3′s)-3′-(5-chloro-1H-indazol-7-yl)-3,3-dimethylspiro[bicyclo[2.2.1]heptane-2,1′-cyclobutan]-3′-ol], the IC50 in assay [1], in assay [2], in assay [3] and in assay [4] was 0.0001 to 10 µM throughout.
Regarding `OC(c1cc(Cl)cc2cn[nH]c12)C1(C(F)F)CCC1` (stereo not drawn) [Compound P-0194, (5-chloro-1H-indazol-7-yl)(1-(difluoromethyl)cyclobutyl)methanol], the IC50 in assay [1], in assay [2], in assay [3] and in assay [4] was 0.0001 to 10 µM each time.
As for `OC(c1cc(Cl)cc2cn[nH]c12)C1CC2(CCC2)C1` (stereo not drawn) [Compound P-0195, (5-chloro-1H-indazol-7-yl)(spiro[3.3]heptan-2-yl)methanol], the 50% inhibitory concentration (IC50) in assay [1], in assay [2], in assay [3] and in assay [4] was 0.0001 to 10 µM each time.
Consider `CC1(C)CC(C(O)c2cc(Cl)cc3cn[nH]c23)C1` (stereo not drawn) [Compound P-0196, (5-chloro-1H-indazol-7-yl)(3,3-dimethylcyclobutyl)methanol], for which the IC50 in assay [1], in assay [2], in assay [3] and in assay [4] was 0.0001 to 10 µM each time.
With `OCC1CCC(C(O)c2cc(Cl)cc3cn[nH]c23)CC1` (stereo not drawn) [Compound P-0197, (5-chloro-1H-indazol-7-yl)(4-(hydroxymethyl)cyclohexyl)methanol], the half-inhibitory concentration (IC50) in assay [1], in assay [2], in assay [3] and in assay [4] was 0.0001 to 10 µM in each case.
